Drawing on US20250059198A1, “BRM DEGRADING COMPOUNDS AND ASSOCIATED METHODS OF USE” (Arvinas Operations, Inc., priority 2021, published 2025), this text covers DC50 and Dmax for twelve molecules.

As usually defined, the DC50 is the concentration at which degradation of the target reaches its halfway point. Lower therefore signals a more potent degrader. As a reminder, the Dmax is the largest share of the target that was removed.

For this assay, the target named is T1, BRM (Homo sapiens, UniProt P51531).
T1 construct: Western Blot Screen of BRM Degradation in SW1573 Cells; endogenous in cells; host or cells: SW1573 cells
Briefly: BRM degradation (Dmax and DC50) in SW1573 cells, Western blot screen / In-Cell Western screen. Type of assay: cell-based. Conditions: overnight (18-20 hours) treatment; for Dmax: read-out: Dmax (%)** (% degraded). A digest of the protocol:
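Dmax and DC50 were derived from BRM levels normalised to an alpha-tubulin control, measured by chemiluminescent Western blotting of lysates or by PFA-fixed In-Cell Western on LI-COR Odyssey. SW1573 cells received compound overnight (18–20 h, 0.1% DMSO final).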
For orientation: Immunoblotting shows a protein as a band on a membrane.

T1 sequence (P51531 whole entry): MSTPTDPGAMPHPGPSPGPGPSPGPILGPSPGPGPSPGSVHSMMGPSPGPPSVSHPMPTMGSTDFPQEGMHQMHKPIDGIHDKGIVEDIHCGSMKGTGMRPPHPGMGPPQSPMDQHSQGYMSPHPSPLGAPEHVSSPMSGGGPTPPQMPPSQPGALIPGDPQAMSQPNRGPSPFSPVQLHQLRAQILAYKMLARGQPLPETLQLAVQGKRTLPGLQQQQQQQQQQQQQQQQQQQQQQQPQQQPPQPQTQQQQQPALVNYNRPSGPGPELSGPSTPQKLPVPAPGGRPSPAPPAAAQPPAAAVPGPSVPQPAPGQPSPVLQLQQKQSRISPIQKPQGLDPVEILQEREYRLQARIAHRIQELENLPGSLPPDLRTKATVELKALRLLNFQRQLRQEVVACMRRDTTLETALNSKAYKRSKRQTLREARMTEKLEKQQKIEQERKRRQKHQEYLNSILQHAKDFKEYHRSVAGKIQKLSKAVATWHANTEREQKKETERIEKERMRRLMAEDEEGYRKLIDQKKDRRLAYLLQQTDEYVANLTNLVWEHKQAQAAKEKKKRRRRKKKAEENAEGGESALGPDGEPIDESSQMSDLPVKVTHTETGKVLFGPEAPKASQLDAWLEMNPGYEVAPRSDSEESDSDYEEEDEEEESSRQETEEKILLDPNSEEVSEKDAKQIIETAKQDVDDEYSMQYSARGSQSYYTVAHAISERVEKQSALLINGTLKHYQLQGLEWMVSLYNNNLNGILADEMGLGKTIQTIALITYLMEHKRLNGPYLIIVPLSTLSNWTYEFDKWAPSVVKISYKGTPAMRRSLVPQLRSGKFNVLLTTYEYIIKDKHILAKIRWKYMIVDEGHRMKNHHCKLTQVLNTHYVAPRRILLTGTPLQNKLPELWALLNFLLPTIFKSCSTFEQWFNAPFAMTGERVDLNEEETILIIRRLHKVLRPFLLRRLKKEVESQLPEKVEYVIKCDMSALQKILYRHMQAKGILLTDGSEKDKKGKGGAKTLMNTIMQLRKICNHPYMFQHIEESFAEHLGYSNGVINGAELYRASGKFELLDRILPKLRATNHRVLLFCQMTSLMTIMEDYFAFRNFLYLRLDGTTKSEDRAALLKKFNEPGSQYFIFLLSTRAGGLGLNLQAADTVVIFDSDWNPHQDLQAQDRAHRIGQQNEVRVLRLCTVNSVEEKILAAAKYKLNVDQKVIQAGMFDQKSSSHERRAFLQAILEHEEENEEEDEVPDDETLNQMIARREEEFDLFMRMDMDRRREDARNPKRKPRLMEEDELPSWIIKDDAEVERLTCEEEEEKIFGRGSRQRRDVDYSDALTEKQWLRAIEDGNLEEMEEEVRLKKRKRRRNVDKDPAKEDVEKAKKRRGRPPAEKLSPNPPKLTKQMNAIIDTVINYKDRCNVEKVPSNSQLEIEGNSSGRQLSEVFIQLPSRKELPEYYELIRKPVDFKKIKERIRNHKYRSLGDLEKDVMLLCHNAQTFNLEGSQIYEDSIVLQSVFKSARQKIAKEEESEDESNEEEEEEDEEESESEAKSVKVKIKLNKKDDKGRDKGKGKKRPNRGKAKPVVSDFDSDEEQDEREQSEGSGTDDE

For `Cc1ncsc1-c1ccc([C@H](C)NC(=O)[C@@H]2C[C@@H](O)CN2C(=O)[C@@H](c2cc(N3CCC(CN4CCC(O[C@H]5C[C@H](N6CCC(Cc7cn(-c8cc(-c9ccccc9O)nnc8N)cn7)CC6)C5)CC4)CC3)no2)C(C)C)cc1` [Compound 130, (2S,4R)-4-hydroxy-N-[(1S)-1-[4-(4-methyl-1,3-thiazol-5-yl)phenyl]ethyl]-1-[(2R)-3-methyl-2-{3-[4-({4-[(1r,3r)-3-[4-({1-[3-amino-6-(2-hydroxyphenyl)pyridazin-4-yl]-1H-imidazol-4-yl}methyl)piperidin-1-yl]cyclobutoxy]piperidin-1-yl}methyl)piperidin-1-yl]-1,2-oxazol-5-yl}butanoyl]pyrrolidine-2-carboxamide], the half-maximal degradation concentration (DC50) lay in the range of 10 to 30 nM and the Dmax was over 75%.

`Cc1ncsc1-c1ccc([C@H](C)NC(=O)[C@@H]2C[C@@H](O)CN2C(=O)[C@H](c2cc(N3CCC(OC(=O)N4CCC(Oc5cc(N6C7CCC6CN(c6cc(-c8ccccc8O)nnc6N)C7)ccn5)CC4)CC3)no2)C(C)C)cc1` [Compound 131, 1-(5-((S)-1-((2S,4R)-4-hydroxy-2-(((S)-1-(4-(4-methylthiazol-5-yl)phenyl)ethyl)carbamoyl)pyrrolidin-1-yl)-3-methyl-1-oxobutan-2-yl)isoxazol-3-yl)piperidin-4-yl 4-((4-(3-(3-amino-6-(2-hydroxyphenyl)pyridazin-4-yl)-3,8-diazabicyclo[3.2.1]octan-8-yl)pyridin-2-yl)oxy)piperidine-1-carboxylate]: the DC50 was at least 30 nM.

Consider `Cc1ncsc1-c1ccc([C@H](C)NC(=O)[C@@H]2C[C@@H](O)CN2C(=O)[C@@H](c2cc(N3CCC(CN4CCC5(CC4)CC(N4CCN(C)[C@H](CN6C7CCC6CN(c6cc(-c8ccccc8O)nnc6N)C7)C4)C5)CC3)no2)C(C)C)cc1` [Compound 132, (2S,4R)-1-[(2R)-2-{3-[4-({2-[(3S)-3-({3-[3-amino-6-(2-hydroxyphenyl)pyridazin-4-yl]-3,8-diazabicyclo[3.2.1]octan-8-yl}methyl)-4-methylpiperazin-1-yl]-7-azaspiro[3.5]nonan-7-yl}methyl)piperidin-1-yl]-1,2-oxazol-5-yl}-3-methylbutanoyl]-4-hydroxy-N-[(1S)-1-[4-(4-methyl-1,3-thiazol-5-yl)phenyl]ethyl]pyrrolidine-2-carboxamide], for which the DC50 is under 2.5 nM and the maximal degradation (Dmax) is over 75%.

With `Cc1ncsc1-c1ccc([C@H](C)NC(=O)[C@@H]2C[C@@H](O)CN2C(=O)[C@@H](c2cc(N3CCC(CN4CCC5(CC4)CC(N4CCN(C)[C@@H](CN6C7CCC6CN(c6cc(-c8ccccc8O)nnc6N)C7)C4)C5)CC3)no2)C(C)C)cc1` [Compound 133, (2S,4R)-1-[(2R)-2-{3-[4-({2-[(3R)-3-({3-[3-amino-6-(2-hydroxyphenyl)pyridazin-4-yl]-3,8-diazabicyclo[3.2.1]octan-8-yl}methyl)-4-methylpiperazin-1-yl]-7-azaspiro[3.5]nonan-7-yl}methyl)piperidin-1-yl]-1,2-oxazol-5-yl}-3-methylbutanoyl]-4-hydroxy-N-[(1S)-1-[4-(4-methyl-1,3-thiazol-5-yl)phenyl]ethyl]pyrrolidine-2-carboxamide], the 50% degradation concentration (DC50) is under 2.5 nM and the greatest degradation seen (Dmax) was over 75%.

For the molecule `Cc1ncsc1-c1ccc([C@H](C)NC(=O)[C@@H]2C[C@@H](O)CN2C(=O)[C@H](c2cc(OCCOC(=O)N3CCC(O[C@H]4C[C@H](Oc5cc(N6C7CCC6CN(c6cc(-c8ccccc8O)nnc6N)C7)ccn5)C4)CC3)no2)C(C)C)cc1` [Compound 134, 2-({5-[(2S)-1-[(2S,4R)-4-hydroxy-2-{[(1S)-1-[4-(4-methyl-1,3-thiazol-5-yl)phenyl]ethyl]carbamoyl}pyrrolidin-1-yl]-3-methyl-1-oxobutan-2-yl]-1,2-oxazol-3-yl}oxy)ethyl 4-[(1r,3r)-3-[(4-{3-[3-amino-6-(2-hydroxyphenyl)pyridazin-4-yl]-3,8-diazabicyclo[3.2.1]octan-8-yl}pyridin-2-yl)oxy]cyclobutoxy]piperidine-1-carboxylate], the 50% degradation concentration (DC50) was at least 30 nM.

With `Cc1ncsc1-c1ccc([C@H](C)NC(=O)[C@@H]2C[C@@H](O)CN2C(=O)[C@H](c2cc(N3CCC(O[C@H]4CC[C@H](Oc5cc(N6C7CCC6CN(c6cc(-c8ccccc8O)nnc6N)C7)ccn5)CC4)CC3)no2)C(C)C)cc1` [Compound 135, (2S,4R)-4-hydroxy-N-[(1S)-1-[4-(4-methyl-1,3-thiazol-5-yl)phenyl]ethyl]-1-[(2S)-3-methyl-2-[3-(4-{[(1r,4r)-4-[(4-{3-[3-amino-6-(2-hydroxyphenyl)pyridazin-4-yl]-3,8-diazabicyclo[3.2.1]octan-8-yl}pyridin-2-yl)oxy]cyclohexyl]oxy}piperidin-1-yl)-1,2-oxazol-5-yl]butanoyl]pyrrolidine-2-carboxamide], the DC50 was at least 30 nM.

`Cc1ncsc1-c1ccc([C@H](C)NC(=O)[C@@H]2C[C@@H](O)CN2C(=O)[C@@H](c2cc(N3CCC(O[C@H]4CC[C@H](Oc5cc(N6C7CCC6CN(c6cc(-c8ccccc8O)nnc6N)C7)ccn5)CC4)CC3)no2)C(C)C)cc1` [Compound 136, (2S,4R)-4-hydroxy-N-[(1S)-1-[4-(4-methyl-1,3-thiazol-5-yl)phenyl]ethyl]-1-[(2R)-3-methyl-2-[3-(4-{[(1r,4r)-4-[(4-{3-[3-amino-6-(2-hydroxyphenyl)pyridazin-4-yl]-3,8-diazabicyclo[3.2.1]octan-8-yl}pyridin-2-yl)oxy]cyclohexyl]oxy}piperidin-1-yl)-1,2-oxazol-5-yl]butanoyl]pyrrolidine-2-carboxamide]: the 50% degradation concentration (DC50) was under 2.5 nM and the Dmax is over 75%.

As to `CC(C)[C@H](C(=O)N1C[C@H](O)C[C@H]1C(=O)N[C@@H](C)c1ccc(C#N)cc1)c1cc(N2CCC(C(=O)N3CCC(O[C@H]4C[C@H](Oc5cc(N6C7CCC6CN(c6cc(-c8ccccc8O)nnc6N)C7)ccn5)C4)CC3)CC2)no1` [Compound 137, (2S,4R)-N-[(1S)-1-(4-cyanophenyl)ethyl]-4-hydroxy-1-[(2S)-3-methyl-2-[3-(4-{4-[(1r,3r)-3-[(4-{3-[3-amino-6-(2-hydroxyphenyl)pyridazin-4-yl]-3,8-diazabicyclo[3.2.1]octan-8-yl}pyridin-2-yl)oxy]cyclobutoxy]piperidine-1-carbonyl}piperidin-1-yl)-1,2-oxazol-5-yl]butanoyl]pyrrolidine-2-carboxamide], the DC50 is at least 30 nM.

Turning to `CC(C)[C@@H](C(=O)N1C[C@H](O)C[C@H]1C(=O)N[C@@H](C)c1ccc(C#N)cc1)c1cc(N2CCC(C(=O)N3CCC(O[C@H]4C[C@H](Oc5cc(N6C7CCC6CN(c6cc(-c8ccccc8O)nnc6N)C7)ccn5)C4)CC3)CC2)no1` [Compound 138, (2S,4R)-N-[(1S)-1-(4-cyanophenyl)ethyl]-4-hydroxy-1-[(2R)-3-methyl-2-[3-(4-{4-[(1r,3r)-3-[(4-{3-[3-amino-6-(2-hydroxyphenyl)pyridazin-4-yl]-3,8-diazabicyclo[3.2.1]octan-8-yl}pyridin-2-yl)oxy]cyclobutoxy]piperidine-1-carbonyl}piperidin-1-yl)-1,2-oxazol-5-yl]butanoyl]pyrrolidine-2-carboxamide], the 50% degradation concentration (DC50) is under 2.5 nM and the Dmax is over 75%.

With `CC(C)[C@H](C(=O)N1C[C@H](O)C[C@H]1C(=O)N[C@@H](C)c1ccc(C#N)cc1)c1cc(N2CCN(C(=O)N3CCC(O[C@H]4C[C@H](Oc5cc(N6C7CCC6CN(c6cc(-c8ccccc8O)nnc6N)C7)ccn5)C4)CC3)CC2)no1` [Compound 139, (2S,4R)-N-[(1S)-1-(4-cyanophenyl)ethyl]-4-hydroxy-1-[(2S)-3-methyl-2-[3-(4-{4-[(1r,3r)-3-[(4-{3-[3-amino-6-(2-hydroxyphenyl)pyridazin-4-yl]-3,8-diazabicyclo[3.2.1]octan-8-yl}pyridin-2-yl)oxy]cyclobutoxy]piperidine-1-carbonyl}piperazin-1-yl)-1,2-oxazol-5-yl]butanoyl]pyrrolidine-2-carboxamide], the DC50 is at least 30 nM.

`CC(C)[C@@H](C(=O)N1C[C@H](O)C[C@H]1C(=O)N[C@@H](C)c1ccc(C#N)cc1)c1cc(N2CCN(C(=O)N3CCC(O[C@H]4C[C@H](Oc5cc(N6C7CCC6CN(c6cc(-c8ccccc8O)nnc6N)C7)ccn5)C4)CC3)CC2)no1` [Compound 140, (2S,4R)-N-[(1S)-1-(4-cyanophenyl)ethyl]-4-hydroxy-1-[(2R)-3-methyl-2-[3-(4-{4-[(1r,3r)-3-[(4-{3-[3-amino-6-(2-hydroxyphenyl)pyridazin-4-yl]-3,8-diazabicyclo[3.2.1]octan-8-yl}pyridin-2-yl)oxy]cyclobutoxy]piperidine-1-carbonyl}piperazin-1-yl)-1,2-oxazol-5-yl]butanoyl]pyrrolidine-2-carboxamide]: the 50% degradation concentration (DC50) is under 2.5 nM and the Dmax was over 75%.

In the case of `Cc1ncsc1-c1ccc([C@H](C)NC(=O)[C@@H]2C[C@@H](O)CN2C(=O)[C@@H](c2cc(N3CCC(CN4CC5(CC(N6CCO[C@H](CN7C8CCC7CN(c7cc(-c9ccccc9O)nnc7N)C8)C6)C5)C4)CC3)no2)C(C)C)cc1` [Compound 141, (2S,4R)-1-[(2R)-2-{3-[4-({6-[(2S)-2-({3-[3-amino-6-(2-hydroxyphenyl)pyridazin-4-yl]-3,8-diazabicyclo[3.2.1]octan-8-yl}methyl)morpholin-4-yl]-2-azaspiro[3.3]heptan-2-yl}methyl)piperidin-1-yl]-1,2-oxazol-5-yl}-3-methylbutanoyl]-4-hydroxy-N-[(1S)-1-[4-(4-methyl-1,3-thiazol-5-yl)phenyl]ethyl]pyrrolidine-2-carboxamide], the DC50 was under 2.5 nM and the Dmax is over 75%.
